Test results taken from patent publication EP2149558A1, “5-[(3,3,3-Trifluoro-2-hydroxy-1-arylpropyl)amino-1-arylquinolin-2-ones, a process for their production and their use as anti-inflammatory agents” (Bayer Schering Pharma Aktiengesellschaft, priority 2008, dated 2010).

Test system: secretion of cytokine IL-8 into the human monocyte cell line THP-1
Experiment: inhibition of LPS-triggered IL-8 secretion in THP-1 cells (ELISA of supernatant)
Type: cell-based
Description: As an essential, molecular mechanism for the anti-inflammatory action of glucocorticoids, the GR-mediated inhibition of the transcription of cytokines, adhesion molecules, enzymes and other pro-inflammatory factors is considered. This inhibition is produced by an interaction of the GR with other transcription factors, e.g., AP-1 and NF-kappa-B (for a survey, see Cato, A. C. B., and Wade, E., BioEssays 18, 371-378, 1996).
The concentration of the cytokines was determined in the supernatant by means of commercially available ELISA kits.

- IC50 (Homo sapiens, inhibition of LPS-triggered IL-8 secretion, THP-1 cells, read-out: IC50(IL8)): 0.31 nM
SMILES: COCC(O)(C(Nc1cc(F)cc2c1ccc(=O)n2-c1ccc(F)nc1)c1ccc(OC)c(F)c1Cl)C(F)(F)F (centres unmarked) [Example 2, 5-{[1-(2-Chloro-3-fluoro-4-methoxyphenyl)-3,3,3-trifluoro-2-hydroxy-2-(methoxymethyl)propyl]amino}-7-fluoro-1-(6-fluoropyridin-3-yl)-1H-quinolin-2-one]
- efficacy (IL-8 inhibition, in comparison with dexamethasone as reference): 107%
